From patent US20090275667A1, “USE OF ALLICIN AS PRESERVATIVE, AS DISINFECTANT, AS ANTIMICROBIAL OR AS BIOCIDAL AGENT” (Stone Island Holdings Ltd, priority 2003, published 2009)

Key:
[1] = tested on: protozoal parasite associated with Leishmaniasis; experiment: Confirmatory in vitro test against the Leishmaniasis parasite; type: cell-based, Leishmania; conditions: allicin 5.0 gm per litre
Description: Confirmatory in vitro tests at the University of East London using allicin at a concentration of 5.0 gm per litre has killed the protozoal parasite associated with Leishmaniasis. Taken with extrapolation of the results from the laboratory studies described in PCT/GB2002/004309, we believe that allicin at a concentration of 5000 ppm has efficacy as an antiprotozoal agent.

Bordetella = experiment: Zones of Inhibition against common chicken bacteria; type: cell-based
[2] = tested on: Enterococcus hirae (University of Brighton isolate); experiment: Modified Kelsey-Sykes test; type: cell-based; design: key: CG = Confluent growth
Description: Allicin can be used to displace or supplement existing harmful forms of disinfectant/biocide such as chlorine, sodium hypochlorite, ozone and per-acetic acid all of which can have an adverse effect on the environment. UV radiation is also used for disinfection but power and general running costs are high. Laboratory studies have been conducted on our behalf using allicin on aqueous suspensions of bacterial species commonly used as indicators of the effectiveness of water and wastewater disinfection. To this effect, identified isolates from the faecal coliform and streptococcus groups, namely, Escherichia coli (NCTC 8156) and Enterococcus hirae (University of Brighton isolate) were used in all experiments. […]
Stock suspensions of Escherichia coli (NCTC 8156) and Enterococcus hirae (University of Brighton isolate) were cultivated in Nutrient Broth No. 2 from freeze dried isolates. Prior to each experiment, serial dilutions of the suspensions were enumerated by the spread plate method on Nutrient Agar and subsequent incubation at 37 deg C.
Initial experimental procedures were based on the methods set out in an established UK protocol (BS 6905: 1987). The Kelsy-Sykes methodology was developed as a guide to the concentrations of disinfectants which may be recommended for use under “dirty” (wastewater/sewage) conditions. It is therefore a suitable means of establishing the effectiveness of a disinfectant against a wastewater containing particulate and dissolved contaminants in addition to micro-organisms.
Therefore, with regard to wastewater/sewage considerations, the protocol was adapted. Under the revised methodology, a sample was taken from the bacterial suspension/biocide mix after the prescribed contact time and plated out onto solid media so that a colony count could be made (see Tables 1 and 2).

P. l. larvae = experiment: Minimum bactericidal concentration by plating out MIC cultures; type: cell-based, Paenibacillus larvae subsp. larvae; conditions: range of 1000 ppm to 25 ppm
Description: Positive controls contained the antibiotic Tylosin (Tylan® 50, Elanco Animal Health Inc., IN) and negative controls contained no antibiotics. Bacterial (P. l. larvae, P. l. pulviphaciens) or fungal (A. apis, A. aggregata) spores (100 μl of approximately 10^8-10^9 spores/ml) were added to a 2.5 ml of bacterial or fungal liquid medium containing serial dilutions of allicin. Cultures were incubated in a shaker at 35° C. and 215 rpm. The optical densities of cultures (OD 600) were recorded 24 h and 48 h post inoculation, depending on the growth rate of the microbial species. […] Minimum bactericidal concentration values (NBC) were determined for allicin by plating out 100 μl of bacterial cultures derived from the MIC assay. Plates were incubated 24 h and 48 h at 33° C. and 6% CO2 to observe microbial growth.

M. plutonius = experiment: Investigation into bacteriostatic or bactericidal effects (Study 2); type: cell-based, Melissococcus plutonius; conditions: conclusion from subculture after exposure
Description: (§1) Where there was no growth in a replicate, at the end of one week the culture was plated out for single colonies on the appropriate agar. This was to determine whether the test item had bactericidal activity, where all the bacterial cells are killed, or bacteriostatic action, where the cells are unable to replicate in the presence of the substance, but will grow when it is removed. A further test, where 0.5 ml of the broth was transferred into 4.5 ml fresh broth (giving a 1:10 dilution) was also undertaken. There would still be some Allicin in the broth, but it should be present at a low enough concentration for growth not to be affected. Where growth occurred in the absence of Allicin, the broth was examined microscopically and plated out for single colonies to confirm the identity of the bacterium.

B. laterosporus = experiment: as above; type: cell-based, Brevibacillus laterosporus; conditions: conclusion from subculture into fresh media
Description: as §1

[3] = tested on: E. coli, Listeria, E. faecalis and other bacteria associated with animal diseases; conditions: laboratory tests of earlier application WO03/024437; cited from earlier work
[4] = allicin conc. 0.9 % (w/v), 10 mins
[5] = allicin conc. 0.9 % (w/v), 20 mins
[6] = allicin conc. 0.9 % (w/v), 30 mins
[7] = allicin conc. 1.08 % (w/v), 10 mins
[8] = allicin conc. 1.08 % (w/v), 20 mins
[9] = allicin conc. 1.26 % (w/v), 10 mins
[10] = allicin conc. 1.26 % (w/v), 20 mins
[11] = allicin conc. 1.62 % (w/v), 10 mins
[12] = allicin conc. 1.62 % (w/v), 20 mins

C=CCS[S+]([O-])CC=C (stereo not drawn) [allicin, Allicin]
killing of the protozoal parasite [1]: killed | zone of inhibition at 166 ppm (Bordetella; 166 ppm (1:6 dilution)): 18 mm | zone of inhibition at 1000 ppm (Bordetella; 1000 ppm): 36 mm | Numbers of colony forming units killed [2, 4]: CG | Percentage reduction in colony forming units [2, 4]: CG | Numbers of colony forming units killed [2, 5]: CG | Percentage reduction in colony forming units [2, 5]: CG | Numbers of colony forming units killed [2, 6]: CG | Percentage reduction in colony forming units [2, 6]: CG | Numbers of colony forming units killed [2, 7]: CG | Percentage reduction in colony forming units [2, 7]: CG | Numbers of colony forming units killed [2, 8]: CG | Percentage reduction in colony forming units [2, 8]: CG | Percentage reduction in colony forming units ([2]; allicin conc. 1.08 % (w/v), 30 mins): 77% | Numbers of colony forming units killed [2, 9]: CG | Percentage reduction in colony forming units [2, 9]: CG | Numbers of colony forming units killed [2, 10]: CG | Percentage reduction in colony forming units [2, 10]: CG | Percentage reduction in colony forming units ([2]; allicin conc. 1.26 % (w/v), 30 mins): 91% | Percentage reduction in colony forming units ([2]; allicin conc. 1.4 % (w/v), 10 mins): CG | Percentage reduction in colony forming units ([2]; allicin conc. 1.4 % (w/v), 20 mins): CG | Percentage reduction in colony forming units ([2]; allicin conc. 1.4 % (w/v), 30 mins): 87% | Numbers of colony forming units killed ([2]; allicin conc. 1.44 % (w/v), 10 mins): CG | Numbers of colony forming units killed ([2]; allicin conc. 1.44 % (w/v), 20 mins): CG | Numbers of colony forming units killed [2, 11]: CG | Percentage reduction in colony forming units [2, 11]: CG | Numbers of colony forming units killed [2, 12]: CG | Percentage reduction in colony forming units [2, 12]: CG | Percentage reduction in colony forming units ([2]; allicin conc. 1.62 % (w/v), 30 mins): 89% | bacteriostatic or bactericidal activity (P. l. larvae): only bacteriostatic (no bactericidal) activity | bacteriostatic or bactericidal effect (M. plutonius): bacteriostatic rather than bactericidal effects | bacteriostatic or bactericidal effect (B. laterosporus): did not kill all bacteria | concentration at which allicin can kill the bacteria [3]: up to 500 ppm
